Reference: article PMC9898036, “VIP152 is a selective CDK9 inhibitor with pre-clinical in vitro and in vivo efficacy in chronic lymphocytic leukemia” (Leukemia, 2022)
Numbering of substitutions follows the chain as printed. Like-named read-outs stand apart in the source and are kept apart here.

Tests used:
ABL1 [1] = molecular target: ABL1 (Homo sapiens, UniProt P00519); assay: KINOMEscan: ABL1; format: binding; settings: read-out: Percent Control; for remaining binding at 0.1 µM: 100 nM; for remaining binding at 1 µM: 1000 nM
Protocol: (§1) The structure and synthesis of VIP152 were recently described by Lücking et al.. (Fig. 1A); however, the selectivity of the molecule in cellular systems has yet to be explored. […] We also performed this experiment at 1000 nM, where CDK9 was inhibited at 99%. […] We found a strong concordance between our data and those of Lücking when comparing the most inhibited kinases. Potential off-target effects of VIP152 were next tested in vitro at a concentration of 10 µM for off-target activity against a broad range of receptors, transporters, ion channels, and enzymes (n = 138) using the Eurofins Diversity Panel.
(§2) Kinomescan Kinase Profiling Assay
(§3) Kinomescan Assay was performed at DiscoverRX and described in Fabian, et al. 2005, Nat.
(§4) Biotechnol. In brief, kinases were produced and subsequently tagged with DNA for qPCR detection.
(§5) Streptavidin-coated magnetic beads were bound to biotinylated kinase ligands to serve as a solid support.
(§6) VIP152 was dissolved in DMSO and tested across a 10 serial threefold dilution set and compared to a test compound and a DMSO control. Kinases which were inhibited by VIP152 would not be bound to the solid-support resulting in decreased substrate for the qPCR reaction. Kinome map was produced via TreeSpot Analysis from DiscoverRX. […]

ABL1 [2] = molecular target: ABL1 (Homo sapiens, UniProt P00519, E255K); assay: KINOMEscan: ABL1; format: binding; settings: ABL1(E255K)-phosphorylated, read-out: Percent Control
Protocol: as §1, §2, §3, §4, §5, §6

ABL1 [3] = molecular target: T1, ABL1 (Homo sapiens, UniProt P00519, F317L); assay: KINOMEscan: ABL1; format: binding; settings: read-out: Percent Control; for remaining binding at 0.1 µM: 100 nM; for remaining binding at 1 µM: 1000 nM
T1 sequence (P00519 229-512 F317L): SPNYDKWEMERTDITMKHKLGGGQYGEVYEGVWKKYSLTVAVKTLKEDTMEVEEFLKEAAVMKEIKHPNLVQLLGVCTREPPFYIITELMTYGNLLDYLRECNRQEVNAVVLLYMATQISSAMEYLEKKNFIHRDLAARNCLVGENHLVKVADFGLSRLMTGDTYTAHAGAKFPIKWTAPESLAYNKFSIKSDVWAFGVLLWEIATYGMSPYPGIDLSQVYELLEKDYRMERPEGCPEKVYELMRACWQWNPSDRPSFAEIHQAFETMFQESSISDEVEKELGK
Protocol: as §1, §2, §3, §4, §5, §6

ABL1 [4] = molecular target: T2, ABL1 (Homo sapiens, UniProt P00519, H396P); assay: KINOMEscan: ABL1; format: binding; settings: read-out: Percent Control; for remaining binding at 0.1 µM: 100 nM; for remaining binding at 1 µM: 1000 nM
T2 sequence (P00519 229-512 H396P): T1 sequence (P00519 229-512 F317L) with L89F, H168P
Protocol: as §1, §2, §3, §4, §5, §6

ABL1 [5] = molecular target: ABL1 (Homo sapiens, UniProt P00519, M351T); assay: KINOMEscan: ABL1; format: binding; settings: ABL1(M351T)-phosphorylated, read-out: Percent Control
Protocol: as §1, §2, §3, §4, §5, §6

ABL1 [6] = molecular target: T3, ABL1 (Homo sapiens, UniProt P00519, Q252H); assay: KINOMEscan: ABL1; format: binding; settings: read-out: Percent Control; for remaining binding at 0.1 µM: 100 nM; for remaining binding at 1 µM: 1000 nM
T3 sequence (P00519 229-512 Q252H): T1 sequence (P00519 229-512 F317L) with Q24H, L89F
Protocol: as §1, §2, §3, §4, §5, §6

ABL1 [7] = molecular target: T4, ABL1 (Homo sapiens, UniProt P00519, T315I); assay: KINOMEscan: ABL1; format: binding; settings: read-out: Percent Control; for remaining binding at 0.1 µM: 100 nM; for remaining binding at 1 µM: 1000 nM
T4 sequence (P00519 229-512 T315I): T1 sequence (P00519 229-512 F317L) with T87I, L89F
Protocol: as §1, §2, §3, §4, §5, §6

ABL1 [8] = molecular target: ABL1 (Homo sapiens, UniProt P00519, Y253F); assay: KINOMEscan: ABL1; format: binding; settings: ABL1(Y253F)-phosphorylated, read-out: Percent Control
Protocol: as §1, §2, §3, §4, §5, §6

ABL1 [9] = assay: KINOMEscan: ABL1; format: binding, human; settings: 1000 nM
Protocol: as §1, §2, §3, §4, §5, §6

RIOK3 = RIOK3 (Homo sapiens, UniProt O14730); assay: KINOMEscan: RIOK3; format: binding; settings: 100 nM, read-out: Percent Control
Sequence of RIOK3 (O14730 whole entry): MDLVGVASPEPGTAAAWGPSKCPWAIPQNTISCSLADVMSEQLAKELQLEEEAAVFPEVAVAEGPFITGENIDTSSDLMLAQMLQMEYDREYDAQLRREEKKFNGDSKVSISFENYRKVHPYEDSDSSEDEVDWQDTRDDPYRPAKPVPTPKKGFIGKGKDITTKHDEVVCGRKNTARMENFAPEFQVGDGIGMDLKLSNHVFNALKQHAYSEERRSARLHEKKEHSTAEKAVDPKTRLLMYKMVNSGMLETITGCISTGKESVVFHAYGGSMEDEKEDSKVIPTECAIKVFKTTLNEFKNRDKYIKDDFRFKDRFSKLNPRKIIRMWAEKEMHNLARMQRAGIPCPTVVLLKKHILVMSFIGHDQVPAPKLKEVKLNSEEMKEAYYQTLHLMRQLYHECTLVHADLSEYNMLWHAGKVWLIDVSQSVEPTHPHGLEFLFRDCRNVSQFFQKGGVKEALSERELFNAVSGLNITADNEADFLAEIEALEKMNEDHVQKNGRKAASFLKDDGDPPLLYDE

TRKB = TRKB (Homo sapiens, UniProt Q16620); assay: KINOMEscan: TRKB; format: binding; settings: 100 nM, read-out: Percent Control
Sequence of TRKB (Q16620 32-822): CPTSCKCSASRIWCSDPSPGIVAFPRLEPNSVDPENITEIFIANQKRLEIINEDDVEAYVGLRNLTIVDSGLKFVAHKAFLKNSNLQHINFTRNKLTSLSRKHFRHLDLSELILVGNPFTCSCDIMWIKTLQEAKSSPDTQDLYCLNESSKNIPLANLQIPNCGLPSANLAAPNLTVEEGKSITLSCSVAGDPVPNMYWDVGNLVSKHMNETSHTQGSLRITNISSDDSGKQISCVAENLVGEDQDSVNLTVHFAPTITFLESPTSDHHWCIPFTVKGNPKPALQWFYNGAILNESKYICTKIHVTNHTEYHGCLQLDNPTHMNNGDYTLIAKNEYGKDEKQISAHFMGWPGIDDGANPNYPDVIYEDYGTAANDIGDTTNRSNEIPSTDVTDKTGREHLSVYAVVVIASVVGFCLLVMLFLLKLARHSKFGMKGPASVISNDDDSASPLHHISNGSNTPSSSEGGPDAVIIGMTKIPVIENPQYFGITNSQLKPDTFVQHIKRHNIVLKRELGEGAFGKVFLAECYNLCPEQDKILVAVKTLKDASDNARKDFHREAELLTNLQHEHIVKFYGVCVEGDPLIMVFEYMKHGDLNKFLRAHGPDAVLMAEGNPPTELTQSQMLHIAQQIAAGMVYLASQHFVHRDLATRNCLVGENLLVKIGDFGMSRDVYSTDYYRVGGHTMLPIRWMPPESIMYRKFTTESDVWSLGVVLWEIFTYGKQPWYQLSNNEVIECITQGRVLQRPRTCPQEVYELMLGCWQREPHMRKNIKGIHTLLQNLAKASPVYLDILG

GRK1 = GRK1 (Homo sapiens, UniProt Q15835); assay: KINOMEscan: GRK1; format: binding; settings: 1000 nM, read-out: Percent Control
Sequence of GRK1 (Q15835 whole entry): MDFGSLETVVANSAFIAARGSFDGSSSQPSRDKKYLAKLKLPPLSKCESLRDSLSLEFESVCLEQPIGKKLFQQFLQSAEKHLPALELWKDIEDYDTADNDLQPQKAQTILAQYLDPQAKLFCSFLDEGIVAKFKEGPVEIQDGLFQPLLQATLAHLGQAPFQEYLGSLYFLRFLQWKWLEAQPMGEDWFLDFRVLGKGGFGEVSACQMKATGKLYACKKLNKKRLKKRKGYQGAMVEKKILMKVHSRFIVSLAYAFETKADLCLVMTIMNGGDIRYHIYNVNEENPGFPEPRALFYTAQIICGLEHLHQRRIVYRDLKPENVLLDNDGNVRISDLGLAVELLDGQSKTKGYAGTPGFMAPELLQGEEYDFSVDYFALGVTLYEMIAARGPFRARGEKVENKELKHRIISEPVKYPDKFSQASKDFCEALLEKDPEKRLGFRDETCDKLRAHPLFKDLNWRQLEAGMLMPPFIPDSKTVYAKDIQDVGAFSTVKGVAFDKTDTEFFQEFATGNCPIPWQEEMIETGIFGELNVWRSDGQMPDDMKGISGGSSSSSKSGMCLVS

HIPK3 = HIPK3 (Homo sapiens, UniProt Q9H422); assay: KINOMEscan: HIPK3; format: binding; settings: 1000 nM, read-out: Percent Control
Sequence of HIPK3 (Q9H422 whole entry): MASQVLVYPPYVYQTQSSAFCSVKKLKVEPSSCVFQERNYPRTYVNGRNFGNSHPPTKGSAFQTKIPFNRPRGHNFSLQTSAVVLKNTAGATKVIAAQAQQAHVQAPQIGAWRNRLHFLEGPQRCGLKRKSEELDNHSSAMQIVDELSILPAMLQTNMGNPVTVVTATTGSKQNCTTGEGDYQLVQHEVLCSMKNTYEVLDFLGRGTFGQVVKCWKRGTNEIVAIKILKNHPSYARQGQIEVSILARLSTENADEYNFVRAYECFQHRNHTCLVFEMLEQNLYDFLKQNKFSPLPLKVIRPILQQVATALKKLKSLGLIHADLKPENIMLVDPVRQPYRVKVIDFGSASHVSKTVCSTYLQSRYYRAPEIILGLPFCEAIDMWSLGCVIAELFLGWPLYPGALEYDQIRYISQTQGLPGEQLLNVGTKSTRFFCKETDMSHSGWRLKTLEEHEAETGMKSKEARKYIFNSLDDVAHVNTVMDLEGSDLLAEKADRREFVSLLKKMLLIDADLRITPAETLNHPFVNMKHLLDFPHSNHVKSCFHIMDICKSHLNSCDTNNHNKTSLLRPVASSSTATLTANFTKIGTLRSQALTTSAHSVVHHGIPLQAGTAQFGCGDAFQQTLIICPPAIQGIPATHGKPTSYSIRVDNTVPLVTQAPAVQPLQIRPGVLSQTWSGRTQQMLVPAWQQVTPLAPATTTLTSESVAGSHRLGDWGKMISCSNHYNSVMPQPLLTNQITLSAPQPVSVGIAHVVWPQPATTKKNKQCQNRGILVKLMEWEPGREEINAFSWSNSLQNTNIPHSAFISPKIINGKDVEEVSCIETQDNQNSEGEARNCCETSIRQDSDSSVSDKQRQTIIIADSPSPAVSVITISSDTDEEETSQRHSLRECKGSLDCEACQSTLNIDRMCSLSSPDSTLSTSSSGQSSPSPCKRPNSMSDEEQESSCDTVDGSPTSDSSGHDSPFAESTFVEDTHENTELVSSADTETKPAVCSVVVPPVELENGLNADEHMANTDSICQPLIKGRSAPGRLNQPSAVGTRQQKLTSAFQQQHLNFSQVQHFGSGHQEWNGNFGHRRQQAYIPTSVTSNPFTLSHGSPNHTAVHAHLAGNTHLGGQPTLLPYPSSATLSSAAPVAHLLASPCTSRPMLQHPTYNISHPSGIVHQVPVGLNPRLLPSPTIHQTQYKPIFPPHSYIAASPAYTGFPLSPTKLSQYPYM

INSRR = INSRR (Homo sapiens, UniProt P14616); assay: KINOMEscan: INSRR; format: binding; settings: 1000 nM, read-out: Percent Control
Sequence of INSRR (P14616 27-1297): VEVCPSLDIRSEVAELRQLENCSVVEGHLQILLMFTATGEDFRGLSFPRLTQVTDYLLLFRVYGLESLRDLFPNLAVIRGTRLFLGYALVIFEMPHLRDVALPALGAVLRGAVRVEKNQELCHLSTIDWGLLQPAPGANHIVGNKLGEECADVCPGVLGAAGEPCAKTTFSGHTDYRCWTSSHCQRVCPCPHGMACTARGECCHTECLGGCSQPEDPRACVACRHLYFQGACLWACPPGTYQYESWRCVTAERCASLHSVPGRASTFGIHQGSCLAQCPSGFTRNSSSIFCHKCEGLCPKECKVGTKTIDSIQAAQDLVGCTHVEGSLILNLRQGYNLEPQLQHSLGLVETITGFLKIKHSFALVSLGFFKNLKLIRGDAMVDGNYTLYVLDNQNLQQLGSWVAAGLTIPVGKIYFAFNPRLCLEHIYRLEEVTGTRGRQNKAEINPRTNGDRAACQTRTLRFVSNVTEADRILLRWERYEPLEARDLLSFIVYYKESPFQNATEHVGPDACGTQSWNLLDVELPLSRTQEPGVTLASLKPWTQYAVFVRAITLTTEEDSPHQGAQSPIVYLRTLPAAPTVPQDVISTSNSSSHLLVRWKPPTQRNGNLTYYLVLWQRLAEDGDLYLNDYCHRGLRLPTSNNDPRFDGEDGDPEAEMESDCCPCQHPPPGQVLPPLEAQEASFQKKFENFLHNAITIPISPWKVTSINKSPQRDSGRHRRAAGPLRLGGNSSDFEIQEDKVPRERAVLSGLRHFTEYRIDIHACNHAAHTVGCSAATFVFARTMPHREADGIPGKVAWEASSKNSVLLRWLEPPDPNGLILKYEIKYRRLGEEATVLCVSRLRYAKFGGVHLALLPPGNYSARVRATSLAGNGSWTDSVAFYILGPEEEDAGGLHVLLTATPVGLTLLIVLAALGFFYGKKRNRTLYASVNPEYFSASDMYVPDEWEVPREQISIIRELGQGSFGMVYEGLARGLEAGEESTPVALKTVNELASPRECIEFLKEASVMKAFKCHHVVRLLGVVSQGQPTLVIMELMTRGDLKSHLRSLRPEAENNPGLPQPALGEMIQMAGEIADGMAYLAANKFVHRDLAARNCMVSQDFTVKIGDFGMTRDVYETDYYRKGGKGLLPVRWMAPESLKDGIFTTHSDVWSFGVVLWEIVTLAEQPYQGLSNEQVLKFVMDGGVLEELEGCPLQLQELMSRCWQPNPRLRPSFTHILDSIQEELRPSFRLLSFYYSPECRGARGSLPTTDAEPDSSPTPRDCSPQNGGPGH

Compound `COc1cc(F)ccc1-c1cc(Nc2cc(CS(C)(=N)=O)ccn2)ncc1F` (centres unmarked) [VIP152] has a remaining binding at 0.1 µM (ABL1 [1]; ABL1-nonphosphorylated) of 64%, a remaining binding at 1 µM (ABL1 [1]; ABL1-nonphosphorylated) of 21% and a remaining binding at 0.1 µM (ABL1 [1]; ABL1-phosphorylated) of 73%. For the same compound, the remaining binding at 1 µM (ABL1 [1]; ABL1-phosphorylated) was 54%, the remaining binding at 0.1 µM (ABL1 [2]; 100 nM) was 83% and the remaining binding at 1 µM (ABL1 [2]; 1000 nM) was 48%. For the same compound, the remaining binding at 0.1 µM (ABL1 [3]; ABL1(F317L)-nonphosphorylated) was 100%, the remaining binding at 1 µM (ABL1 [3]; ABL1(F317L)-nonphosphorylated) was 52% and the remaining binding at 0.1 µM (ABL1 [3]; ABL1(F317L)-phosphorylated) was 95%. The remaining binding at 1 µM (ABL1 [3]; ABL1(F317L)-phosphorylated) was 56%, the remaining binding at 0.1 µM (ABL1 [4]; ABL1(H396P)-nonphosphorylated) was 70% and the remaining binding at 1 µM (ABL1 [4]; ABL1(H396P)-nonphosphorylated) was 7.6%. It also gave a remaining binding at 0.1 µM (ABL1 [4]; ABL1(H396P)-phosphorylated) of 100%, a remaining binding at 1 µM (ABL1 [4]; ABL1(H396P)-phosphorylated) of 52% and a remaining binding at 0.1 µM (ABL1 [5]; 100 nM) of 86%. For the same compound, the remaining binding at 1 µM (ABL1 [5]; 1000 nM) was 43%, the remaining binding at 0.1 µM (ABL1 [6]; ABL1(Q252H)-nonphosphorylated) was 72% and the remaining binding at 1 µM (ABL1 [6]; ABL1(Q252H)-nonphosphorylated) was 25%. It also gave a remaining binding at 0.1 µM (ABL1 [6]; ABL1(Q252H)-phosphorylated) of 100%, a remaining binding at 1 µM (ABL1 [6]; ABL1(Q252H)-phosphorylated) of 46% and a remaining binding at 0.1 µM (ABL1 [7]; ABL1(T315I)-nonphosphorylated) of 96%. For the same compound, the remaining binding at 1 µM (ABL1 [7]; ABL1(T315I)-nonphosphorylated) was 3.2%, the remaining binding at 0.1 µM (ABL1 [7]; ABL1(T315I)-phosphorylated) was 95% and the remaining binding at 1 µM (ABL1 [7]; ABL1(T315I)-phosphorylated) was 53%. The remaining binding at 0.1 µM (ABL1 [8]; 100 nM) was 100%, the remaining binding at 1 µM (ABL1 [8]; 1000 nM) was 45% and the “inhibition of ABL1” value (ABL1 [9]) was 96.8%. The remaining binding at 0.1 µM (RIOK3) was 100%, the remaining binding at 0.1 µM (TRKB) was 100% and the remaining binding at 1 µM (GRK1) was 88%. For the same compound, the remaining binding at 1 µM (HIPK3) was 66% and the remaining binding at 1 µM (INSRR) was 85%.
